35 compounds from patent publication US20260274807A1 (University of Health Sciences and Pharmacy in St. Louis, priority 2023, published 2026) can be followed below.

Bounds are passed on as bounds.

For assay [1], the target named is T1, ERRγ (Homo sapiens, UniProt P62508).
T1 construct: expressed in transfected cells; host or cells: HEK293
T1 sequence (P62508 1-458): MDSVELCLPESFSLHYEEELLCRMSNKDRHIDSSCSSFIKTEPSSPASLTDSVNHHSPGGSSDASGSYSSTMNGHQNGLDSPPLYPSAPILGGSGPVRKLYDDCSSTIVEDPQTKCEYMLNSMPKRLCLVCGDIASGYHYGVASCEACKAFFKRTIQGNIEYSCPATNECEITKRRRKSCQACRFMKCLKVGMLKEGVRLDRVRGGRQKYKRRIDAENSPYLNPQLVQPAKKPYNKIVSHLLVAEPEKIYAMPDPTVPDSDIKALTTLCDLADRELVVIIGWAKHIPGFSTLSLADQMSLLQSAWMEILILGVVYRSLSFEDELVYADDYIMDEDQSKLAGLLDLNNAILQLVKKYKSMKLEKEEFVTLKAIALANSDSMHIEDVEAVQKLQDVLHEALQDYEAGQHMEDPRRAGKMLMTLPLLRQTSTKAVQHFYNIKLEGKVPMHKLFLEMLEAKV
Nature of the assay: ERRE luciferase reporter assay in HEK293 cells transfected with pcDNA3.1 ERRγ. It is filed as cell-based. The note with it: HEK293 cells transfected with ERRE reporter construct and pcDNA3.1 ERRγ; compound for 24 hours; luciferase activity. As to the method:
(§1) HEK293 cells were maintained in Dulbecco's modified Eagles medium (DMEM) supplemented with 10% fetal bovine serum at 37° C. under […]. […] Cells were transfected with ERRE reporter construct and pcDNA3.1 ERRα or ERRγ. Twenty-four-hours post-transfection, the cells were treated with vehicle or compound (various concentrations) for 24 hours (4 wells per dose). Luciferase activity was measured using the One-Glo Tox luciferase reporter assay system (Promega) and EC50s were calculated using GraphPad Prism software.
Background: In a reporter assay the amount or activity of a reporter protein is the signal.

The target of assay [2] is T2, ERRα (Homo sapiens, UniProt P11474).
T2 construct: expressed in transfected cells; host or cells: HEK293
T2 sequence (P11474 1-423): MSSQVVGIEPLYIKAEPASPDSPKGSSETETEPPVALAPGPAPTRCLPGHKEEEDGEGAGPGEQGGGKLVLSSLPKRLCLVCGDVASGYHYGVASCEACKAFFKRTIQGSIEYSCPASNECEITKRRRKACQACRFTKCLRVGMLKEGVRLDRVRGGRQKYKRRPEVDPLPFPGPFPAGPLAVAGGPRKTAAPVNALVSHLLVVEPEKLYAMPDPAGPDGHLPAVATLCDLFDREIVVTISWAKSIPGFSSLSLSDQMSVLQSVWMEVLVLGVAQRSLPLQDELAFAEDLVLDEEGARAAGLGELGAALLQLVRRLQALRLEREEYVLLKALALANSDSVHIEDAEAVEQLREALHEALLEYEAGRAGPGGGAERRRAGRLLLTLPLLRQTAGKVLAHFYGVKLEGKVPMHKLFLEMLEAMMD
Nature of the assay: ERRE luciferase reporter assay in HEK293 cells transfected with pcDNA3.1 ERRα. It is filed as cell-based. The note with it: HEK293 cells transfected with ERRE reporter construct and pcDNA3.1 ERRα; compound for 24 hours; luciferase activity. The procedure: as §1

For the compound `COc1ccc(-c2nnc(-c3ccccc3[N+](=O)[O-])o2)cc1` [Entry 82, 2-(4-methoxyphenyl)-5-(2-nitrophenyl)-1,3,4-oxadiazole], the concentration for a half-maximal effect (EC50) in assay [1] and in assay [2] was less than 1000 nM in each case.
As to `CC(C)(C)c1ccc(-c2nnc(-c3ccccc3[N+](=O)[O-])o2)cc1` [Entry 83, 2-(4-(tert-butyl)phenyl)-5-(2-nitrophenyl)-1,3,4-oxadiazole], the EC50 in assay [1] and in assay [2] was less than 1000 nM in each case.
For the compound `O=[N+]([O-])c1ccc(Br)cc1-c1nnc(-c2ccccc2)o1` [Entry 84, 2-(5-bromo-2-nitrophenyl)-5-phenyl-1,3,4-oxadiazole], the EC50 in assay [1] and in assay [2] was greater than 5000 nM each time.
Turning to `COc1ccc(-c2nnc(-c3ccccc3)o2)c([N+](=O)[O-])c1` [Entry 86, 2-(4-methoxy-2-nitrophenyl)-5-phenyl-1,3,4-oxadiazole], the EC50 in assay [1] and in assay [2] was less than 1000 nM throughout.
With `COc1ccc([N+](=O)[O-])c(-c2nnc(-c3ccccc3)o2)c1` [Entry 87, 2-(5-methoxy-2-nitrophenyl)-5-phenyl-1,3,4-oxadiazole], the EC50 in assay [1] was greater than 5000 nM; in assay [2], 1000 to 5000 nM.
For `COc1cccc(-c2nnc(-c3ccccc3)o2)c1[N+](=O)[O-]` [Entry 88, 2-(3-methoxy-2-nitrophenyl)-5-phenyl-1,3,4-oxadiazole] the same measures were less than 1000 nM and less than 1000 nM.
For `Cc1cccc(-c2nnc(-c3ccccc3)o2)c1[N+](=O)[O-]` [Entry 89, 2-(3-methyl-2-nitrophenyl)-5-phenyl-1,3,4-oxadiazole] the same measures were less than 1000 nM and less than 1000 nM.
For `O=[N+]([O-])c1c(Cl)cccc1-c1nnc(-c2ccccc2)o1` [Entry 90, 2-(3-chloro-2-nitrophenyl)-5-phenyl-1,3,4-oxadiazole] the same measures were 1000 to 5000 nM and 1000 to 5000 nM.
Regarding `O=[N+]([O-])c1ccccc1-c1nnc(-c2ccc(Cl)cc2)o1` [Entry 92, 2-(4-chlorophenyl)-5-(2-nitrophenyl)-1,3,4-oxadiazole], the EC50 in assay [1] and in assay [2] was greater than 5000 nM in each case.
Consider `COc1ccc(-c2nnc(-c3ccccc3)s2)cc1` [Entry 1001, 2-(4-methoxyphenyl)-5-phenyl-1,3,4-thiadiazole], for which the EC50 in assay [1] and in assay [2] was less than 1000 nM each time.
For the compound `Cc1ccc(-c2nnc(-c3ccccc3)s2)cc1` [Entry 1002, 2-phenyl-5-(p-tolyl)-1,3,4-thiadiazole], the EC50 in assay [1] and in assay [2] was less than 1000 nM in each case.
Take `Cc1ccc(-c2nnc(-c3ccccc3Cl)s2)cc1` [Entry 1003, 2-(2-chlorophenyl)-5-(p-tolyl)-1,3,4-thiadiazole]: the EC50 in assay [1] and in assay [2] was less than 1000 nM in each case.
Consider `c1ccc(-c2nnc(-c3ccccc3)s2)cc1` [Entry 1004, 2,5-diphenyl-1,3,4-thiadiazole], for which the half-maximal effective concentration (EC50) in assay [1] and in assay [2] was less than 1000 nM in each case.
On to `Cc1ccc(-c2nnc(-c3ccccc3[N+](=O)[O-])s2)cc1` [Entry 1005, 2-(2-nitrophenyl)-5-(p-tolyl)-1,3,4-thiadiazole], for which the EC50 in assay [1] and in assay [2] was less than 1000 nM each time.
As to `c1ccc(-c2nnc(C3CCCCC3)s2)cc1` [Entry 1006, 2-cyclohexyl-5-phenyl-1,3,4-thiadiazole], the 50% effective concentration (EC50) in assay [1] and in assay [2] was less than 1000 nM in each case.
`c1ccc(-c2nnc(C34CC5CC(CC(C5)C3)C4)s2)cc1` [Entry 1007, 2-((1S,3S)-adamantan-1-yl)-5-phenyl-1,3,4-thiadiazole]: the EC50 in assay [1] and in assay [2] was less than 1000 nM each time.
Consider `FC(F)(F)c1cccc(-c2nnc(-c3ccccn3)s2)c1` [Entry 1008, 2-(pyridin-2-yl)-5-(3-(trifluoromethyl)phenyl)-1,3,4-thiadiazole], for which the half-maximal effective concentration (EC50) in assay [1] and in assay [2] was less than 1000 nM in each case.
In the case of `FC(F)(F)c1ccc(-c2nnc(-c3ccccn3)s2)cc1` [Entry 1009, 2-(pyridin-2-yl)-5-(4-(trifluoromethyl)phenyl)-1,3,4-thiadiazole], the EC50 in assay [1] and in assay [2] was less than 1000 nM in each case.
With `c1ccc(-c2nnc(-c3cnccn3)s2)cc1` [Entry 1010, 2-phenyl-5-(pyrazin-2-yl)-1,3,4-thiadiazole], the EC50 in assay [1] and in assay [2] was less than 1000 nM each time.
As for `COc1cccc(-c2nnc(-c3ccccc3)s2)c1` [Entry 1012, 2-(3-methoxyphenyl)-5-phenyl-1,3,4-thiadiazole], the EC50 in assay [1] and in assay [2] was less than 1000 nM each time.
As to `COc1ccccc1-c1nnc(-c2ccccc2)s1` [Entry 1013, 2-(2-methoxyphenyl)-5-phenyl-1,3,4-thiadiazole], the EC50 in assay [1] and in assay [2] was less than 1000 nM in each case.
Regarding `FC(F)(F)c1cccc(-c2nnc(-c3ccccc3)s2)c1` [Entry 1014, 2-phenyl-5-(3-(trifluoromethyl)phenyl)-1,3,4-thiadiazole], the EC50 in assay [1] and in assay [2] was 1000 to 5000 nM in each case.
In the case of `Cc1ccccc1-c1nnc(-c2ccccc2)s1` [Entry 1015, 2-phenyl-5-(o-tolyl)-1,3,4-thiadiazole], the half-maximal effective concentration (EC50) in assay [1] and in assay [2] was less than 1000 nM throughout.
On to `CC(C)(C)c1ccc(-c2nnc(-c3ccccc3[N+](=O)[O-])s2)cc1` [Entry 1016, 2-(4-(tert-butyl)phenyl)-5-(2-nitrophenyl)-1,3,4-thiadiazole], for which the EC50 in assay [1] and in assay [2] was less than 1000 nM throughout.
On to `Clc1ccc(-c2nnc(-c3ccccc3)s2)cc1` [Entry 1017, 2-(4-chlorophenyl)-5-phenyl-1,3,4-thiadiazole], for which the EC50 in assay [1] and in assay [2] was less than 1000 nM in each case.
For the compound `COc1ccc(-c2nnc(-c3ccc(Br)cc3)s2)cc1` [Entry 1018, 2-(4-bromophenyl)-5-(4-methoxyphenyl)-1,3,4-thiadiazole], the values for the EC50 in assay [1] and in assay [2] were 1000 to 5000 nM and less than 1000 nM, respectively.
On the same counts, the results for `COc1ccc(-c2nnc(-c3ccco3)s2)cc1` [Entry 1019, 2-(furan-2-yl)-5-(4-methoxyphenyl)-1,3,4-thiadiazole] are less than 1000 nM and less than 1000 nM.
As to `COc1ccc(-c2nnc(-c3ccc(C)o3)s2)cc1` [Entry 1020, 2-(4-methoxyphenyl)-5-(5-methylfuran-2-yl)-1,3,4-thiadiazole], the EC50 in assay [1] and in assay [2] was less than 1000 nM throughout.
As for `COc1ccc(-c2nnc(-c3ccccc3[N+](=O)[O-])s2)cc1` [Entry 1021, 2-(4-methoxyphenyl)-5-(2-nitrophenyl)-1,3,4-thiadiazole], the EC50 in assay [1] and in assay [2] was less than 1000 nM throughout.
Regarding `COc1ccc(-c2nnc(-c3cccs3)s2)cc1` [Entry 1022, 2-(4-methoxyphenyl)-5-(thiophen-2-yl)-1,3,4-thiadiazole], the concentration giving a half-maximal response (EC50) in assay [1] and in assay [2] was less than 1000 nM in each case.
Take `COc1cccc(-c2nnc(-c3ccccc3)s2)c1[N+](=O)[O-]` [Entry 1023, 2-(3-methoxy-2-nitrophenyl)-5-phenyl-1,3,4-thiadiazole]: the EC50 in assay [1] and in assay [2] was less than 1000 nM in each case.
For `COc1ccc(-c2nnc(-c3ccccc3Cl)s2)cc1` [Entry 1024, 2-(2-chlorophenyl)-5-(4-methoxyphenyl)-1,3,4-thiadiazole], the EC50 in assay [1] and in assay [2] was less than 1000 nM each time.
For `Cc1ccc(-c2nnc(-c3ccnc4ccccc34)s2)cc1` [Entry 1025, 2-(quinolin-4-yl)-5-(p-tolyl)-1,3,4-thiadiazole], the EC50 in assay [1] and in assay [2] was less than 1000 nM in each case.
As for `COc1ccc(-c2nnc(-c3ccccc3)s2)c(N)c1` [Entry 1026, 5-methoxy-2-(5-phenyl-1,3,4-thiadiazol-2-yl)aniline], the EC50 in assay [1] and in assay [2] was greater than 5000 nM in each case.
Take `CC(C)(C)c1ccc(-c2nnc(-c3ccccc3N)s2)cc1` [Entry 1027, 2-(5-(4-(tert-butyl)phenyl)-1,3,4-thiadiazol-2-yl)aniline]: the EC50 in assay [1] and in assay [2] was less than 1000 nM in each case.

What is called EC50 is the concentration needed to bring the measured effect to its halfway point.
